{"source": "patent US20070053892A1", "about": "“Methods and kits for co-administration of nutritional supplements” (Everett Laboratories, Inc., priority 2005, published 2007)", "origin": "cited, not measured here", "key": {"[1]": {"settings": "patients with hypertension"}, "[2]": {"settings": "patients with congestive heart failure"}, "[3]": {"settings": "patients with cardiomyopathy"}, "[4]": {"settings": "patients with ischemic heart disease"}}}
{"smiles": "COC1=C(OC)C(=O)C(C/C=C(\\C)CC/C=C(\\C)CC/C=C(\\C)CC/C=C(\\C)CC/C=C(\\C)CC/C=C(\\C)CC/C=C(\\C)CC/C=C(\\C)CC/C=C(\\C)CCC=C(C)C)=C(C)C1=O", "note": "[CoQ10, coenzyme Q10]", "values": [{"measurement": "blood pressure", "setting": "[1]", "value": "significantly reduce blood pressure"}, {"measurement": "myocardial metabolic function, blood pressure, myocardial thickness", "setting": "[2]", "value": "improve myocardial metabolic function, reduce blood pressure, and reduce myocardial thickness"}, {"measurement": "cardiac function including ejection fraction and cardiac output", "setting": "[3]", "value": "significant improvement in cardiac function"}, {"measurement": "magnitude and rate of clinical improvement", "setting": "[4]", "value": "enhances both the magnitude and rate of clinical improvement"}]}
